Results taken from US7320984B2, “Remedies or preventives for urinary frequency or urinary incontinence and morphinan derivatives having nitrogen-containing heterocyclic group” (Toray Industries, Inc., priority 2002, dated 2008).

System: rhythmic bladder contractions in rats
Experiment: Inhibitory effect against rhythmic bladder contractions in rats
Assay type: in vivo
Conditions: anesthetized female SD rats, intravenous
In short: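 Urethane-anesthetized (1.0 g/kg i.p.) female SD rats; saline infused into bladder to induce rhythmic contractions, intravesical pressure monitored. Compound given i.v. at 1 ml/kg in saline, 10% or 20% aqueous DMSO, or 5% aqueous xylitol. Inhibitory time = period intravesical pressure stayed ≤50% of post-dose level (onset within 10 min); vehicles tested alone.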

Compound | Mean Inhibitory Time of Rhythmic Bladder Contractions (dose 0.1 mg/kg body weight) [min] | Mean Inhibitory Time of Rhythmic Bladder Contractions (dose 0.01 mg/kg body weight) [min] | other results
O=c1[nH]c2ccccc2c(=O)n1[C@@H]1CC[C@@]2(O)[C@H]3Cc4ccc(O)c5c4[C@@]2(CCN3CC2CC2)[C@H]1O5 [Compound 104, 3-(17-cyclopropylmethyl-4,5α-epoxy-3,14-dihydroxy-morphinan-6β-yl)-1H-quinazolin-2,4-dione] | 13.5 |  | 
O=c1c2ccccc2[nH]c(=S)n1[C@@H]1CC[C@@]2(O)[C@H]3Cc4ccc(O)c5c4[C@@]2(CCN3CC2CC2)[C@H]1O5 [Compound 105, 3-(17-cyclopropylmethyl-4,5α-epoxy-3,14-dihydroxy-morphinan-6β-yl)-2-thioxo-2,3-dihydro-1H-quinazolin-4-one] | 7.3 |  | 
O=C1Cc2ccccc2C(=O)N1[C@@H]1CC[C@@]2(O)[C@H]3Cc4ccc(O)c5c4[C@@]2(CCN3CC2CC2)[C@H]1O5 [Compound 106, 2-(17-cyclopropylmethyl-4,5α-epoxy-3,14-dihydroxy-morphinan-6β-yl)-4H-isoquinolin-1,3-dione] |  | 12.9 | 
O=S1(=O)c2ccccc2S(=O)(=O)N1[C@@H]1CC[C@@]2(O)[C@H]3Cc4ccc(O)c5c4[C@@]2(CCN3CC2CC2)[C@H]1O5 [Compound 107, 2-(17-cyclopropylmethyl-4,5α-epoxy-3,14-dihydroxy-morphinan-6β-yl)-benzo[1,3,2]dithiazol-1,1,3,3-tetraoxide] |  | 14.1 | 
O=C1c2ccccc2S(=O)(=O)N1[C@@H]1CC[C@@]2(O)[C@H]3Cc4ccc(O)c5c4[C@@]2(CCN3CC2CC2)[C@H]1O5 [Compound 108, N-(17-cyclopropylmethyl-4,5α-epoxy-3,14-dihydroxy-morphinan-6β-yl)-O-sulfonebenzimide] |  | 25.6 | 
C=CCN1CC[C@]23c4c5ccc(O)c4O[C@H]2[C@H](N2C(=O)c4ccccc4S2(=O)=O)CC[C@@]3(O)[C@H]1C5 [Compound 109, N-(17-allyl-4,5α-epoxy-3,14-dihydroxy-morphinan-6β-yl)-O-sulfonebenzimide] | 18.1 |  | 
O=S1(=O)c2ccccc2CN1[C@@H]1CC[C@@]2(O)[C@H]3Cc4ccc(O)c5c4[C@@]2(CCN3CC2CC2)[C@H]1O5 [Compound 110, N-(17-cyclopropylmethyl-4,5α-epoxy-3,14-dihydroxy-morphinan-6β-yl)-2,3-dihydro-benzo[d]isothiazol-1,1-dioxide] | 12.6 |  | 
Oc1ccc2c3c1O[C@H]1[C@H](N4CCCC4)CC[C@@]4(O)[C@@H](C2)N(CC2CC2)CC[C@]314 [Compound 111, 17-cyclopropylmethyl-4,5α-epoxy-6β-(pyrrolidin-1-yl)-morphinan-3,14-diol] |  |  | Mean Inhibitory Time of Rhythmic Bladder Contractions (dose 1.0 mg/kg body weight): 2.8 min
